Data as given in patent US20050180972A1, “Anti-CD20 antibody-drug conjugates for the treatment of cancer and immune disorders” (priority 2002, published 2005).
Like-named read-outs stand apart in the source and are kept apart here. Square brackets hold non-standard residues; d marks the D form. Peptide text beside a SMILES is read from it. * marks the point of attachment. Dolaproine = CO[C@@H]([C@@H]1CCCN1)[C@@H](C)C(=O)O; Dil = CC[C@H](C)[C@H](NC)[C@@H](CC(=O)O)OC; X1 = C[C@@H](N*)[C@@H](O)c1ccccc1; NMeV = CN[C@H](C(=O)O)C(C)C

What was measured:
[1] = test system: Daudi, Ramos, Raji and Karpas 299 cells; experiment: Relative potency of unconjugated drugs versus doxorubicin across cell lines; type: cell-based, human
Protocol: (§1) Cytotoxicity assays. Cytotoxicity was measured by Alamar Blue (Biosource International) dye reduction assay according to manufacturers directions (Nakayama et al. Journal Of Immunological Methods 1997; 204:205-208). Briefly, a 40% solution (w/v) of Alamar Blue was freshly prepared in complete media just prior to adding to cultures. The Alamar Blue solution was added at cell densities of 10^5 cells/ml for the Ramos, Raji, and Karpas cell lines, and at a cell density of 4×10^5 cells/ml for the Daudi cell line. After 92 h following drug exposure. Alamar Blue solution was added to cells to constitute 10% culture volume. The cells were incubated for 4 h and dye reduction measured on a Fusion HT fluorescent plate reader (Packard Instruments, Meriden, Conn.).
(§2) Cell sensitivity to unconjugated drugs. The cells were initially evaluated for relative sensitivity to doxorubicin and MMAE. Cells were exposed to drugs for 2 h, washed, replated in fresh media and incubated for an additional 92 h. Four h. prior to harvest, cells were incubated with Alamar Blue, a reducible dye that provides readout of cell viability (Nakayarna et al., 1997).

[2] = test system: Raji cells; experiment: Alamar Blue cytotoxicity assay, Raji cells; type: cell-based, human
Protocol: as §1, §2
(§3) Sensitivity of cells to ADCs. […] As described above, 4 h prior to harvest, cells were incubated with Alamar Blue and cell viability assessed.

[3] = test system: Daudi cells; experiment: Alamar Blue cytotoxicity assay, Daudi cells; type: cell-based, human
Protocol: as §1, §2, §3

[4] = test system: Karpas 299 cells; experiment: Alamar Blue cytotoxicity assay, CD20-negative Karpas 299 cells; type: cell-based, human
Protocol: as §1, §2, §3

[5] = test system: Ramos cells; experiment: Alamar Blue cytotoxicity assay, Ramos cells; type: cell-based, human
Protocol: as §1, §2, §3

[6] = test system: Ramos cells; experiment: Confocal microscopy for mAb/ADC trafficking; settings: 5 ug/ml, 37 C, 1, 4 and 24 h
Text: Microscopy for mAb/ ADC trafficking. […] At the designated times cells were harvested by centrifugation, fixed and permeabilized by paraformaldehyde/saponin (Cytofix/Cytoperm™ Buffer, BD PharMingen, San Diego, Calif.). After washing with the Perm/Wash™ buffer (BD PharMingen) and blocking with goat IgG, cells were stained with a goat anti-human IgG Fc_specific FITC conjugate (Jackson ImmunoResearch Laboratories, Inc., West Grove, Pa.). The localization of fluorescence signals was then visualized using a Deltavision confocal fluorescence microscope equipped with digital analysis software.
Internalization of the mAb-drug conjugate.

[7] = test system: CD20-positive cells; experiment: Cytotoxicity of ADCs, summary statement; type: cell-based, human; settings: following brief exposure
Protocol: as §1, §3

[8] = test system: Ramos NHL cells; experiment: Subcutaneous Ramos NHL xenograft model; type: in vivo, SCID mice; settings: intraperitoneal, every 4 days for 3 injections, 3 mg/kg
Protocol: For the localized non Hodgkin's lymphoma model, 2×10^6 Ramos NHL cells were implanted into the right flank of SCID mice. […] Treatment consisted of intraperitoneal injections of mAb or ADC every 4 days for 3 injections. Tumor size was determined using the formula (L×W^2)/2.
SCID mice were implanted with 5×10^6 Ramos cells into the flank and the tumor size in each group of 5 animals was allowed to progress to an average size of 100 mm^3 before therapy with mAb or ADCs was initiated. Treatment consisted of intraperitoneal injections of mAb or ADC every 4 days for 3 injections using 1 and 3 mg/kg/injection.

[9] = test system: Ramos cells; experiment: Induction of apoptosis, Annexin V-FITC / propidium iodide staining; settings: 5 μg/ml, after 24 hr of incubation
Protocol: Selective induction of Apoptosis. […] At the designated times cells were removed from cultures and stained with Annexin V-FITC and propidium iodide (PI) as described in Materials and Methods. The range of apoptotic cells (Annexin V^+/PI^−) and of dead cells (Annexin V^+/PI^+) was determined by flow cytometric analysis of each population.
Induction of Apoptosis. […] At designated time points cells were removed from cultures and the degrees of apoptosis and cell death were determined by Annexin V binding to the cell surface and loss of propidium iodide (PI) inclusion respectively (FIG. 5).

[10] = ADC, 2 h binding, washed, additional 92 h, Raji
[11] = ADC, 2 h binding, washed, additional 92 h, Daudi
[12] = ADC, 2 h binding, washed, additional 92 h, Karpas

How did the “times more potent than doxorubicin” value [1] turn out when `CC[C@H](C)[C@@H]([C@@H](CC(=O)N1CCC[C@H]1[C@H](OC)[C@@H](C)C(=O)N[C@H](C)[C@@H](O)c1ccccc1)OC)N(C)C(=O)[C@@H](NC(=O)[C@H](C(C)C)N(C)C)C(C)C` [Auristatin E] was run?
The value was > 50 times.

`COc1cccc2c1C(=O)c1c(O)c3c(c(O)c1C2=O)C[C@@](O)(C(=O)CO)C[C@@H]3O[C@H]1C[C@H](N)[C@H](O)[C@H](C)O1` [Doxorubicin, doxorubicin, reference compound] was tested. Which IC50 ([2]; Homo sapiens, unconjugated drug, 2 h exposure, washed, additional 92 h, Raji (CD20+), read-out: IC50) did it give?
The IC50 was 0.2 µM.

What about the IC50 ([3]; Homo sapiens, unconjugated drug, 2 h exposure, washed, additional 92 h, Daudi (CD20+), read-out: IC50) of the same molecule?
Its IC50 is 0.14 µM.

And the IC50 ([4]; Homo sapiens, KARPAS-299, unconjugated drug, 2 h exposure, washed, additional 92 h, Karpas (CD20-), read-out: IC50)?
The IC50 was 0.65 µM.

What about the IC50 ([5]; Homo sapiens, unconjugated drug, 2 h exposure, washed, additional 92 h, Ramos (CD20+), read-out: IC50) of the same molecule?
Its IC50 is 0.225 µM.

How did the IC50 ([2]; Homo sapiens, Raji) turn out when `CC[C@H](C)[C@@H]([C@@H](CC(=O)N1CCC[C@H]1[C@H](OC)[C@@H](C)C(=O)N[C@H](C)[C@@H](O)c1ccccc1)OC)N(C)C(=O)[C@@H](NC(=O)[C@@H](NC)C(C)C)C(C)C` [MMAE, monomethyl Auristatin E] (H-[NMeV]V[Dil][Dolaproine]-X1) was run?
The IC50 was 0.0035 µM.

And the “Activity Ratio MMAE/Doxorubicin” value ([2]; Raji (CD20+))?
Its value is 57.1.

And the “Activity Ratio MMAE/Doxorubicin” value ([3]; Daudi (CD20+))?
Its value is 215.4.

And the IC50 ([3]; Homo sapiens, Daudi)?
The IC50 was 0.00065 µM.

What about the IC50 ([4]; Homo sapiens, KARPAS-299) of the same molecule?
Its IC50 is 0.003 µM.

What about the “Activity Ratio MMAE/Doxorubicin” value ([4]; Karpas (CD20-)) of the same molecule?
Its value is 216.7.

What about the IC50 ([5]; Homo sapiens, Ramos) of the same molecule?
Its IC50 is 0.001 µM.

What about the “Activity Ratio MMAE/Doxorubicin” value ([5]; Ramos (CD20+)) of the same molecule?
The value was 225.0.

Rituxan-vcDox [reference compound] was tested. Which IC50 [2, 10] did it give?
Its IC50 is >50 mg/L.

And the “toxicity at the highest levels tested” value ([2]; Raji cells, up to 50 ug/ml)?
Its value is “did not affect significant toxicity”.

What about the IC50 [3, 11] of the same molecule?
Its IC50 is >50 mg/L.

And the “cellular localization (equatorial section)” value [6]?
Its value is “remained primarily on the surface”.

What about the IC50 [4, 12] of the same molecule?
Its IC50 is >50 mg/L.

What about the IC50 ([5]; ADC, 2 h binding, washed, additional 92 h, Ramos) of the same molecule?
Its IC50 is >50 mg/L.

How did the IC50 ([2]; ADC on Raji cells (FIG. 4A)) turn out when “Rituximab-valine-citrulline-monomethyl Auristatin E [Rituxan-vcMMAE]” was run?
The IC50 was 1.4 mg/L.

What about the IC50 [2, 10] of the same molecule?
Its IC50 is 1.5 mg/L.

And the IC50 [3, 11]?
Its IC50 is 2 mg/L.

What about the IC50 [7] of the same molecule?
Its IC50 is 0.05 mg/L.

What about the “cellular localization (equatorial section)” value [6] of the same molecule?
The value was “localized to the cell interior within 4 h”.

And the “delay in tumor growth” value [8]?
The value was “significant delay in tumor growth”.

And the IC50 [4, 12]?
Its IC50 is >50 mg/L.

What about the “percentage of apoptotic cells” value [9] of the same molecule?
The value was 19%.

What about the “percentage of dead cells” value [9] of the same molecule?
Its value is 60%.

And the IC50 ([5]; ADC on Ramos cells (FIG. 4B))?
Its IC50 is 0.045 mg/L.
